Measurements as given in patent US9764001B2, “Target for diagnosis and treatment of diabetes and cardiovascular diseases” (The Regents of the University of California, priority 2012, dated 2017).
“Also recorded” adds a separate entry of the source. Where two headings read alike, the source gives them in different places.

Columns and labels:
Min6 cells [1] = test: Intracellular calcium level measurement (fura-2) in Min6 cells; type: cell-based, mouse
Experimental: (FIGS. 6C to 6I) Intracellular calcium level in Min6 mouse beta cells in the presence or absence of glucose (FIG. 6C, with glucose; FIG. 6D, without glucose), nimodipine (10 μM) (FIG. 6E), control antibody (FIG. 6F), anti-CX3CR1 neutralizing antibody (FIG. 6G), PTX (250 ng/ml) (FIG. 6H), or U0126 (10 μM) (FIG. 6I). Mean+/−SEM.
(FIGS. 15A-1 to 15B-3) Intracellular calcium level in Min6 cells. Min6 cells were incubated in 2.8 mM glucose media with or without U0126 (10 μM) for 30 minutes, and then subjected to intracellular calcium measurement in the presence or absence of arginine (10 mM) and/or high glucose (16.7 mM) challenge. (FIGS. 15A-1 to 15A-3) Intracellular calcium level with arginine treatment. (FIGS. 15B-1 to 15B-3) Intracellular calcium level with arginine plus high glucose (16.7 mM) treatment. Area under the curve for first 90 (FIG. 15B-1) or 60 (FIG. 15B-2) seconds was graphed in FIG. 15B-3.
The Cytoplasmic free calcium ion concentration in Min6 cells was measured by fura-2 fluorescence ratio digital imaging. Briefly, Min6 cells, grown on coverslips, were loaded with 5 μM fura-2 AM [dissolved in 0.01% Pluronic F-127 plus 0.1% DMSO in KRB] at room temperature for 60 min and then washed in fresh KRB for 30 min. The coverslips with Min6 cells were mounted in a perfusion chamber on a Nikon microscope stage.

Min6 cells [2] = test: GSIS test using Min6 cells; type: cell-based, mouse; conditions: for glucose- and arginine plus glucose-stimulated insulin secretion: U0126 10 μM, arginine 10 mM, glucose 16.7 mM
Experimental: (FIG. 6B) GSIS test using Min6 cells with or without FKN (100 ng/ml) or U0126 (10 μM). Mean+/−SEM.
Min6 cells were incubated in 2.8 mM glucose media with or without U0126 (10 μM) for 30 minutes, and then subjected to intracellular calcium measurement in the presence or absence of arginine (10 mM) and/or high glucose (16.7 mM) challenge.

Min6 cells [3] = test: Palmitate-induced ICER-1 and beta cell gene expression in Min6 cells (quantitative realtime RT-PCR); type: cell-based, mouse; conditions: palmitate 0.4 mM, FKN 100 ng/ml, U0126 10 μM, 48 h
Experimental: Min6 cells were incubated with palmitate (Pal; 0.4 mM) in the presence or absence of FKN (100 ng/ml) or U0126 (10 μM). 48 h later, cells were harvested and subjected to quantitative realtime RT-PCR.

Min6 cells [4] = test: ERK phosphorylation western blot in Min6 cells; type: cell-based, mouse; conditions: PTX 250 ng/ml pre-treatment 15 min
Experimental: FIG. 14. FKN stimulates ERK phosphorylation in a PTX-sensitive manner (related to FIGS. 6A-1 to 6Q-4). Min6 cells were pre-treated with DMSO (control), U0126 (10 μM), or PTX (250 ng/ml) for 15 min, and then incubated with or without FKN (100 ng) for 15 min. Cells were harvested and subjected to western blot.

primary mouse islets = test: Static GSIS test using primary mouse islets; type: cell-based; conditions: FKN 100 ng/ml; PTX 250 ng/ml, Wortmannin 10 μM, PD98059 50 μM
Experimental: (FIGS. 6A-1 to 6A-4) GSIS test using primary mouse islets with or without pertussis toxin (PTX; 250 ng/ml), Wortmannin (Wort; 10 μM), or PD98059 (50 μM), in the presence or absence of FKN (100 ng/ml). Mean+/−SEM, n=6 per group.
Isolated mouse islets were cultured overnight in mouse islet media (DMEM containing 1 g/L glucose, 10% v/v FBS, 0.1% v/v Penicillin/Streptomycin).

human islets = test: Static GSIS studies using human islets; type: cell-based

N#CC(=C(/N)Sc1ccccc1N)/C(C#N)=C(\N)Sc1ccccc1N [U0126]
arginine plus glucose-stimulated intracellular calcium increase (Min6 cells [1]): attenuated; also recorded: reduces
effect on FKN-induced intracellular calcium increase (Min6 cells [1]): blocked
effect on FKN potentiation of glucose and GLP1-induced insulin secretion (Min6 cells [2]; FIG. 6B: U0126 10 μM, FKN 100 ng/ml): suppressed
glucose- and arginine plus glucose-stimulated insulin secretion (Min6 cells [2]): reduces
glucose- and arginine plus glucose-stimulated insulin secretion (Min6 cells [2]; listed as MEK inhibitor): attenuated
effect of MEK inhibitor on FKN effects on ICER-1, NeuroD, PDX-1 and Glut2 expression (Min6 cells [3]): abolished

pertussis toxin
sensitivity of FKN-stimulated ERK phosphorylation to inhibitor (Min6 cells [4]): PTX-sensitive
effect of inhibitor on FKN-stimulated insulin secretion (primary mouse islets): inhibited
effect on FKN-induced intracellular calcium increase (Min6 cells [1]; PTX 250 ng/ml, U0126 10 μM, anti-CX3CR1 antibody vs control antibody): blocked

COc1cccc(-c2cc(=O)c3ccccc3o2)c1N [PD98059]
effect of inhibitor on FKN-stimulated insulin secretion (primary mouse islets): inhibited

B1: human FKN: human fractalkine used on isolated human islets (100 or 400 ng/ml) (protein, UniProt P78423 25-397, looked up)
Fractalkine: QHHGVTKCNITCSKMTSKIPVALLIHYQQNQASCGKRAIILETRQHRLFCADPKEQWVKDAMQHLDRQAAALTRNGGTFEKQIGEVKPRTTPAAGGMDESVVLEPEATGESSSLEPTPSSQEAQRALGTSPELPTGVTGSSGTRLPPTPKAQDGGPVGTELFRVPPVSTAATWQSSAPHQPGPSLWAEAKTSEAPSTQDPSTQASTASSPAPEENAPSEGQRVWGQGQSPRPENSLEREEMGPVPAHTDAFQDWGPGSMAHVSVVPVSSEGTPSREPVASGSWTPKAEEPIHATMDPQRLGVLITPVPDAQAATRRQAVGLLAFLGLLFCLGVAMFTYQSLQGCPRKMAGEMAEGLRYIPRSCGSNSYVLVPV
increase in GSIS (human islets; at the maximal concentration (100 or 400 ng/ml tested)): 65%
GSIS dose response (human islets; human FKN 100 or 400 ng/ml): dose responsive increase
